Laboratory results: patent US20160346249A1 (priority 2012, published 2016)
Like-named read-outs stand apart in the source and are kept apart here.

Test: Single rising oral dose (10-150 mg IR) safety, tolerance and pharmacokinetics in healthy male volunteers
Assay type: in vivo, human
Settings: human, plasma, oral; for MRT inf: read-out: MRT0-∞; for AUC(0-t): read-out: AUC0-t
Text: Fifty (50) healthy male adult volunteers, between the ages of 19 and 43 years (mean±SD: 28±6 years) were enrolled in the study and randomized to the […] different treatments. […] The subjects were divided into panels of 10 subjects/dose group. Seven subjects in each group received the test drug, while three received an identical-looking placebo. […] The five treatments are outlined below:
The subjects were admitted to the clinic the night before dose administration and fasted from approximately 10 hour before to 4 hour after ingestion of the study capsules. Treatments were administered with 240 mL of mineral water between 08:00 and 09:00 hours. […] The assay calibration range was 5 to 2,000 ng/mL.
The values of Cmax and Tmax were the observed value for each subject. The terminal elimination rate constant λz was derived from the log-linear disposition phase of the concentration-time curve using linear least-squares regression for which the program determined the appropriate number of terminal points to calculate λz. At least three terminal plasma concentrations were used for estimating λz. The t1/2 (HL_Lambda_z) was calculated as ln 2/λz. AUC0-t and AUMC0-t were determined using the linear trapezoidal rule for each increasing concentration and the log-trapezoidal rule for descending concentrations. The AUC values from the last quantifiable time point to infinity was calculated as Ct/λz. This value was added to AUC0-t to obtain AUC0-∞. […] Oral clearance was calculated as Dose/AUC0-∞. The 90% confidence intervals were calculated for all of the variables.
SAS, version 8.2, was used for the analysis.

Clc1ccc([C@]23CNC[C@H]2C3)cc1Cl [amitifadine, (+)-1-(3,4-dichlorophenyl)-3-azabicyclo[3.1.0]hexane]
half-life (10 mg, individual subject, read-out: t1/2 (converted)): 3.47 h | MRT inf (25 mg, individual subject): 4.81 h | AUC(0-inf) (50 mg, individual subject): 1690 ng·h/mL | MRT inf (50 mg, individual subject): 5.18 h | half-life (50 mg, individual subject, read-out: t1/2 (converted)): 3.25 h | AUC(0-inf) (100 mg, individual subject): 5010 ng·h/mL | AUC(0-t) (100 mg, individual subject): 4960 ng·h/mL | MRT inf (100 mg, individual subject): 4.92 h | half-life (100 mg, individual subject, read-out: t1/2 (converted)): 3.94 h | AUC(0-inf) (150 mg, individual subject): 7300 ng·h/mL | AUC(0-t) (150 mg, individual subject): 7210 ng·h/mL | MRT inf (150 mg, individual subject): 5.67 h | AUC(0-inf) (male, 10 mg, Geometric Mean): 418 ng·h/mL | AUC(0-t) (male, 10 mg, Geometric Mean): 377 ng·h/mL | MRT inf (male, 10 mg, Geometric Mean): 5.21 h | Tmax (male, 10 mg, Geometric Mean, read-out: Tmax): 0.696 h | half-life (male, 10 mg, Geometric Mean, read-out: t1/2 (converted)): 3.4 h | AUC(0-inf) (male, 10 mg, Mean (n = 7)): 429 ng·h/mL | AUC(0-t) (male, 10 mg, Mean (n = 7)): 387 ng·h/mL | MRT inf (male, 10 mg, Mean (n = 7)): 5.23 h | half-life (male, 10 mg, Mean (n = 7), read-out: t1/2 (converted)): 3.42 h | AUC(0-inf) (male, 10 mg, Median): 454 ng·h/mL | AUC(0-t) (male, 10 mg, Median): 409 ng·h/mL | MRT inf (male, 10 mg, Median): 5.35 h | half-life (male, 10 mg, Median, read-out: t1/2 (converted)): 3.47 h | AUC(0-inf) (male, 25 mg, Geometric Mean): 1430 ng·h/mL | AUC(0-t) (male, 25 mg, Geometric Mean): 1340 ng·h/mL | MRT inf (male, 25 mg, Geometric Mean): 4.79 h | Tmax (male, 25 mg, Geometric Mean, read-out: Tmax): 0.863 h | half-life (male, 25 mg, Geometric Mean, read-out: t1/2 (converted)): 2.97 h | AUC(0-inf) (male, 25 mg, Mean (n = 7)): 1470 ng·h/mL | AUC(0-t) (male, 25 mg, Mean (n = 7)): 1390 ng·h/mL | MRT inf (male, 25 mg, Mean (n = 7)): 4.83 h | half-life (male, 25 mg, Mean (n = 7), read-out: t1/2 (converted)): 3.15 h | AUC(0-inf) (male, 25 mg, Median): 1300 ng·h/mL | AUC(0-t) (male, 25 mg, Median): 1190 ng·h/mL | MRT inf (male, 25 mg, Median): 4.65 h | half-life (male, 25 mg, Median, read-out: t1/2 (converted)): 3 h | AUC(0-inf) (male, 50 mg, Geometric Mean): 2420 ng·h/mL | AUC(0-t) (male, 50 mg, Geometric Mean): 2320 ng·h/mL | MRT inf (male, 50 mg, Geometric Mean): 5.23 h | Tmax (male, 50 mg, Geometric Mean, read-out: Tmax): 1.02 h | half-life (male, 50 mg, Geometric Mean, read-out: t1/2 (converted)): 3.65 h | AUC(0-inf) (male, 50 mg, Mean (n = 7)): 2490 ng·h/mL | AUC(0-t) (male, 50 mg, Mean (n = 7)): 2390 ng·h/mL | MRT inf (male, 50 mg, Mean (n = 7)): 5.25 h | half-life (male, 50 mg, Mean (n = 7), read-out: t1/2 (converted)): 3.68 h | AUC(0-inf) (male, 50 mg, Median): 2200 ng·h/mL | AUC(0-t) (male, 50 mg, Median): 2120 ng·h/mL | MRT inf (male, 50 mg, Median): 5.29 h | Tmax (male, 50 mg, Median, read-out: Tmax): 1 h | half-life (male, 50 mg, Median, read-out: t1/2 (converted)): 3.62 h | AUC(0-inf) (male, 100 mg, Geometric Mean): 4850 ng·h/mL | AUC(0-t) (male, 100 mg, Geometric Mean): 4780 ng·h/mL | MRT inf (male, 100 mg, Geometric Mean): 5.7 h | half-life (male, 100 mg, Geometric Mean, read-out: t1/2 (converted)): 4.15 h | AUC(0-inf) (male, 100 mg, Mean (n = 7)): 4880 ng·h/mL | AUC(0-t) (male, 100 mg, Mean (n = 7)): 4810 ng·h/mL | MRT inf (male, 100 mg, Mean (n = 7)): 5.75 h | half-life (male, 100 mg, Mean (n = 7), read-out: t1/2 (converted)): 4.15 h | AUC(0-inf) (male, 100 mg, Median): 4820 ng·h/mL | AUC(0-t) (male, 100 mg, Median): 4730 ng·h/mL | MRT inf (male, 100 mg, Median): 5.69 h | half-life (male, 100 mg, Median, read-out: t1/2 (converted)): 4.22 h | AUC(0-inf) (male, 150 mg, Geometric Mean): 8490 ng·h/mL | AUC(0-t) (male, 150 mg, Geometric Mean): 8360 ng·h/mL | MRT inf (male, 150 mg, Geometric Mean): 5.97 h | Tmax (male, 150 mg, Geometric Mean, read-out: Tmax): 1.63 h | half-life (male, 150 mg, Geometric Mean, read-out: t1/2 (converted)): 3.64 h | AUC(0-inf) (male, 150 mg, Mean (n = 7)): 8620 ng·h/mL | AUC(0-t) (male, 150 mg, Mean (n = 7)): 8510 ng·h/mL | MRT inf (male, 150 mg, Mean (n = 7)): 6.04 h | half-life (male, 150 mg, Mean (n = 7), read-out: t1/2 (converted)): 3.71 h | AUC(0-inf) (male, 150 mg, Median): 8010 ng·h/mL | AUC(0-t) (male, 150 mg, Median): 7940 ng·h/mL | MRT inf (male, 150 mg, Median): 5.87 h | half-life (male, 150 mg, Median, read-out: t1/2 (converted)): 3.68 h | half-life (male, 10 to 150 mg, read-out: elimination half-life): 3 to 4 h | Tmax (male, 10 to 150 mg, read-out: mean Tmax): 0.7 to 1.75 h | MRT (male, 10 to 150 mg, read-out: mean residence time): 5 to 6 h
